Laboratory results: patent US20250144067A1, “PERSONALIZED STARVATION THERAPY FOR CANCER” (Faeth Therapeutics, Inc., priority 2021, published 2025)
Counter-ions that a name gives are not always drawn. Like-named read-outs stand apart in the source and are kept apart here.

What was measured:
[1] = test system: NCI-H292 lung cancer cells; assay: FDA drug screening, complete media vs cholesterol-free media without statin (TABLE 1); format: cell-based, human
[2] = test system: NCI-H292 lung cancer cells; assay: FDA drug screening, complete media vs cholesterol-free media with simvastatin (TABLE 2); format: cell-based, human
[3] = NCI-H292 cells, cholesterol-free media without statin
[4] = NCI-H292 cells, drug in cholesterol-free media with simvastatin 0.04 μM
[5] = NCI-H292 cells, drug in complete media
[6] = complete media vs cholesterol-free media + simvastatin (0.04 μM), […]
[7] = NCI-H292 cells, cholesterol-free media without statin, FDA drug library screen
[8] = NCI-H292 cells, complete media, FDA drug library screen
[9] = NCI-H292 cells, FDA drug library screen, cholesterol-free media with simvastatin 0.04 μM
[10] = NCI-H292 cells, FDA drug library screen, complete media
[11] = complete vs cholesterol-free media, >0 enhanced anti-cancer activity, about 0 neutral, <0 antagonist
[12] = complete media minus cholesterol-free media + simvastatin, >0 enhanced anti-cancer activity, about 0 neutral, <0 antagonist
[13] = complete vs cholesterol-free media, greater than 0 enhanced anti-cancer activity, about 0 neutral, below 0 antagonists
[14] = complete media vs cholesterol-free media + simvastatin (0.04 μM), >0 enhanced anti-cancer activity, about 0 neutral, <0 antagonist
[15] = NCI-H292 cells, cholesterol-free media with simvastatin 0.04 μM, cell growth value in FDA drug screen
[16] = Complete minus Cholesterol-free, >0 enhanced anti-cancer activity, about 0 neutral, <0 antagonist
[17] = NCI-H292 cells, FDA library drug in cholesterol-free media with simvastatin 0.04 μM
[18] = NCI-H292 cells, FDA library drug in complete media

Compound: Cn1c(CCCC(=O)O)nc2cc(N(CCCl)CCCl)ccc21 [Bendamustine (hydrochloride)]
- Difference ([1]; Complete minus Cholesterol-free, […]): −0.21
- Cholesterol-free [1, 3]: 1.195
- Complete ([1]; NCI-H292 cells, complete media): 0.9866
- Cholesterol-free media + simvastatin (0.04 μM) [2, 4]: 1.142
- Complete Media [2, 5]: 0.9554
- Difference [2, 6]: −0.19

Compound: NCCCC[C@H](N)C(=O)O.O=C(O)COc1nn(Cc2ccccc2)c2ccccc12 [Bendazac L-Lysine]
- Cholesterol-free [1, 7]: 0.6107
- Complete [1, 8]: 1.115
- Difference ([1]; complete vs cholesterol-free media, […]): 0.50
- Cholesterol-free media + simvastatin (0.04 μM) [2, 9]: 1.079
- Complete Media [2, 10]: 0.922
- Difference [2, 6]: −0.16

Compound: c1ccc(Cc2nc3ccccc3[nH]2)cc1 [Bendazol]
- Cholesterol-free [1, 7]: 1.234
- Complete [1, 8]: 1.354
- Difference [1, 11]: 0.12
- Cholesterol-free media + simvastatin (0.04 μM) [2, 9]: 1.208
- Complete Media [2, 10]: 1.472
- Difference [2, 12]: 0.26

Compound: CC(Cc1cccc(C(F)(F)F)c1)NCCOC(=O)c1ccccc1 (centres unmarked) [Benfluorex (hydrochloride)]
- Cholesterol-free [1, 3]: 1.106
- Complete ([1]; NCI-H292 cells, complete media): 0.6694
- Difference [1, 13]: −0.44
- Cholesterol-free media + simvastatin (0.04 μM) [2, 4]: 1.041
- Complete Media [2, 5]: 0.8151
- Difference [2, 14]: −0.23

Compound: C/C(=C(\CCOP(=O)(O)O)SC(=O)c1ccccc1)N(C=O)Cc1cnc(C)nc1N [Benfotiamine]
- Cholesterol-free [1, 3]: 1.163
- Complete ([1]; NCI-H292 cells, complete media): 0.7915
- Difference [1, 13]: −0.37
- Cholesterol-free media + simvastatin (0.04 μM) [2, 9]: 1.23
- Complete Media [2, 10]: 1.076
- Difference [2, 14]: −0.15

Compound: COC(=O)C1=C(C)NC(C)=C(C(=O)OC2CCCN(Cc3ccccc3)C2)C1c1cccc([N+](=O)[O-])c1 (centres unmarked) [Benidipine (hydrochloride)]
- Cholesterol-free [1, 3]: 0.9476
- Complete ([1]; NCI-H292 cells, complete media): 0.5889
- Difference [1, 13]: −0.36
- Cholesterol-free media + simvastatin (0.04 μM) [2, 15]: 1.054
- Difference [2, 12]: 0.11

Compound: CC(=O)Nc1ccc(OC(=O)c2ccccc2OC(C)=O)cc1 [Benorilate]
- Cholesterol-free [1, 3]: 1.212
- Complete ([1]; NCI-H292 cells, complete media): 0.8832
- Difference [1, 13]: −0.33
- Cholesterol-free media + simvastatin (0.04 μM) [2, 9]: 1.253
- Complete Media [2, 10]: 1.11
- Difference [2, 14]: −0.14

Compound: NC(CO)C(=O)NNCc1ccc(O)c(O)c1O (centres unmarked) [Benserazide (hydrochloride)]
- Difference [1, 16]: 0.01
- Cholesterol-free [1, 7]: 1.039
- Complete [1, 8]: 1.047
- Cholesterol-free media + simvastatin (0.04 μM) [2, 9]: 1.132
- Complete Media [2, 10]: 1.052
- Difference [2, 14]: −0.08

Compound: O=C(O)c1ccc(NC(=O)[C@H](Cc2ccc(O)cc2)NC(=O)c2ccccc2)cc1 [Bentiromide]
- Difference [1, 16]: −0.23
- Cholesterol-free [1, 3]: 1.105
- Complete ([1]; NCI-H292 cells, complete media): 0.8729
- Cholesterol-free media + simvastatin (0.04 μM) [2, 4]: 0.9161
- Complete Media [2, 5]: 0.7117
- Difference [2, 14]: −0.20

Compound: NC(=NCc1ccccc1)NC(=O)c1nc(Cl)c(N)nc1N [Benzamil (hydrochloride)]
- Difference [1, 16]: −0.30
- Cholesterol-free [1, 3]: 0.9643
- Complete ([1]; NCI-H292 cells, complete media): 0.6686
- Cholesterol-free media + simvastatin (0.04 μM) ([2]; NCI-H292 cells, cholesterol-free media with simvastatin 0.04 μM, FDA drug library screen (TABLE 2)): 0.8193
- Complete Media ([2]; NCI-H292 cells, complete media, FDA drug library screen (TABLE 2)): 0.8118
- Difference ([2]; complete media minus cholesterol-free media + simvastatin (0.04 μM), >0 enhanced anti-cancer activity, about 0 neutral, <0 antagonist): −0.01

Compound: CCc1oc2ccccc2c1C(=O)c1cc(Br)c(O)c(Br)c1 [Benzbromarone]
- Difference ([1]; Complete minus Cholesterol-free, greater than 0 enhanced anti-cancer activity, about 0 neutral, below 0 antagonists): −0.92
- Cholesterol-free ([1]; NCI-H292 cells in cholesterol-free media without statin): 1.902
- Complete ([1]; NCI-H292 cells in complete media): 0.9837
- Cholesterol-free media + simvastatin (0.04 μM) [2, 15]: 0.9582
- Complete Media ([2]; NCI-H292 cells, complete media, cell growth value in FDA drug screen): 0.9819
- Difference [2, 12]: 0.02

Compound: CC(C)(C)CC(C)(C)c1ccc(OCCOCC[N+](C)(C)Cc2ccccc2)cc1 [Benzethonium chloride]
- Cholesterol-free [1]: 0.07505
- Complete [1]: 0.2197
- Difference [1]: 0.14
- Cholesterol-free media + simvastatin (0.04 μM) [2]: 0.6785
- Complete Media [2]: 0.4348
- Difference [2]: −0.24

Compound: O=C(Cn1ccnc1[N+](=O)[O-])NCc1ccccc1 [Benznidazol]
- Cholesterol-free [1, 7]: 1.047
- Complete [1, 8]: 1.215
- Difference [1, 11]: 0.17
- Cholesterol-free media + simvastatin (0.04 μM) [2, 17]: 2.104
- Complete Media [2, 18]: 1.636
- Difference [2, 14]: −0.47

Compound: CCOC(=O)c1ccc(N)cc1 [Benzocaine]
- Difference [1, 16]: −0.30
- Cholesterol-free [1, 3]: 0.9439
- Complete ([1]; NCI-H292 cells, complete media): 0.6479
- Cholesterol-free media + simvastatin (0.04 μM) [2, 17]: 1.309
- Complete Media [2, 18]: 1.007
- Difference [2, 14]: −0.30
